Patent US20230057984A1, “NORMALIZATION OF CULTURE OF CORNEAL ENDOTHELIAL CELLS” (KYOTO PREFECTURAL PUBLIC UNIVERSITY CORPORATION, priority 2011, published 2023)

Columns and labels:
[1] = test system: Cynomolgus monkey corneal endothelial cells; assay: Culture of monkey corneal endothelial cells with SB431542, cell form by phase-contrast microscope (Example 2); format: cell-based; settings: primate CEC primary culture, base culture medium with 1 μmol/l SB431542; control showed fibroblast phenotype
Experimental: • Cynomolgus monkey corneal endothelial cells (MCEC; source of supply and culturing method): the MCECs were cultured by the improved-type protocol described previously [Koizumi N, et al. (2007) Invest Ophthalmol Vis Sci 48: 4519-4526], [Li W, et al. (2007) Invest Ophthalmol Vis Sci 48: 614-620]. Briefly speaking, eyeballs of cynomolgus monkeys, which were humanely killed for another purpose, were purchased (Nissei Bilis Co., Ltd., Ohtsu, Japan and Keari Co., Ltd., Wakayama, Japan) (the method is described above). The Descemet's membrane including corneal endothelial cells were exfoliated, and the corneal endothelial cells were mechanically exfoliated together with basement membranes, followed by treatment using dispase or collagenase (ROCHE catalog number: 10 103 586 001) and then primary culture. Typically, treatment was performed using 1 mg/mL collagenase A (Roche Applied Science, Penzberg, Germany) at 37° C. for 2 hours. For the culture medium, DMEM (INVITROGEN catalog number 12320) was used with 10% FBS (BIOWEST, catalog number: S1820-500) and 2 ng/ml basic FGF (INVITROGEN, catalog number: 13256-029) added thereto. […] In addition, after the cells were fixed, immunostaining was performed using ZO-1, Na^+/K^+-ATPase as a function-associated marker, followed by observation through a fluorescence microscope. […]

[2] = test system: Cynomolgus monkey corneal endothelial cells; assay: PCR of Na+/K+-ATPase and ZO-1 mRNA in monkey corneal endothelial cells (Example 3); format: cell-based; settings: monkey CEC treated with SB431542 vs fibroblast phenotype control
Experimental: Method of culturing and the like was conducted in a similar manner as the Comparative Examples. In particular, materials similar to those in Example 2 were used. • SB431542: this was obtained from TOCRIS (catalog number: 1614). • Antibodies to Na^+/K^+-ATPase: those obtained from MILLIPORE (catalog number: 05-369) were used. • Antibodies to ZO-1: mice, those obtained from INVITROGEN (catalog number: 339100) were used; and rabbits, those obtained from ZYMED LABORATORIES (catalog number: 61-7300) were used. • Antibodies to GAPDH: those obtained from ABCAM (catalog number: ab36840) were used. • Immunostaining and the like: cells cultured in a similar manner to Example 2 were fixed and immunostaining was performed on Na^+/K^+-ATPase and ZO-1, followed by taking an image using a fluorescence microscope. • Western blot method: similar to Example 1, a Western blot method was performed on the Na^+/K^+-ATPase, ZO-1, and GAPDH. • Realtime PCR method: in addition, PCR was performed for Na^+/K^+-ATPase, ZO-1, and GAPDH in the following method. The primers were purchased from an oligonucleotide synthesizing company, INVITROGEN, and desalted primer were used. […] Amplified DNA fragments were electrophoresed in a 1.5% agarose gel, and were detected by ethidium bromide staining.

NC(=O)c1ccc(-c2nc(-c3ccc4c(c3)OCO4)c(-c3ccccn3)[nH]2)cc1 [SB431542]
cell form in phase difference images [1]: a true shape of a polygonal cell and a single layer of a contact inhibition type
expression of Na+/K+-ATPase and ZO-1, mRNA level (PCR) [2]: strongly enhanced
